# Data taken from patent US11161845B2, “Pyrrolopyridine-aniline compounds for treatment of dermal disorders” (Nflection Therapeutics, Inc., priority 2017, dated 2021).
# How the values were obtained:
# [1] = target: T1, hERG channel protein (Homo sapiens, UniProt Q12809); assay: hERG screening assay (Predictor hERG FP); format: binding; conditions: fluorescence polarization tracer displacement
# T1 construct: purchased ThermoFisher PV5365
# Procedure: hERG screening was conducted using a procedure similar to the procedure described by Piper et al. (Piper, D. R. et al., Assay Drug Dev. Technol. 2008, 6(2):213-223). The Predictor hERG FP assay (available from ThermoFisher, cat. no. PV5365) is a homogenous, fluorescence polarization biochemical-based format utilizing a membrane fraction containing hERG channel protein (Predictor hERG Membrane) and a high affinity, red-fluorescent hERG channel ligand (Predictor hERG Tracer Red). When the Predictor hERG Tracer ligand is bound to the hERG channel it produces high fluorescence polarization values. Compounds that bind to the hERG channel protein (competitors) displace the Predictor hERG Tracer Red resulting in decreased fluorescence polarization values.
# Test compounds were solubilized in DMSO at 100× (or greater) of the desired starting concentration. Screening was conducted with a final concentration of 1% DMSO. For 10-point titrations, 3-fold serial dilutions were performed from the starting concentrations. The assay buffer used was 25 mM HEPES (pH 7.5), 15 mM KCl, 1 mM MgCl2, and 0.05% Pluronic F-127 (available from Sigma-Aldrich).
# Predictor hERG membranes were stored as a 2× stock at −80° C. Each membrane lot was titrated to identify the concentration of membranes required to obtain ˜70% bound tracer. Before setting up the assay the membranes were thawed in a 37° C. water bath and stored at room temperature. To avoid light scatter caused by large membrane particulates the membranes were sonicated until a homogeneous solution free of particulates is obtained. […]
# 384 well untreated low-volume polystyrene microplates (Corning Cat. #4511) were used for the assay. […] The assay plate was read on a fluorescence plate reader (Tecan Safire^2) and the data was analyzed. […]
# Assay blank control wells consisted of Predictor hERG Membranes and Assay Buffer. The blank wells were used for background subtraction of raw parallel and perpendicular fluorescence values prior to the calculation of polarization values. […]
# [2] = tested on: C57BL/6J mice; assay: In vivo mouse model, skin and systemic toxicity of topical application (survival); conditions: for Survival Rates: twice daily 5 days per week, 10% BSA
# Description: This study was designed to assess the skin toxicity and gross systemic toxicity of twice daily topical administration of a compound disclosed herein, as well as to evaluate the effect of metabolic lability on systemic toxicity.
# Study Objective: The primary objective of this study was to characterize the skin and systemic toxicity of twice daily topical application of a compound disclosed herein, applied for 25 days in mice. Secondary objectives included determination of the 25-day skin and plasma compound levels of formulations containing three dosages of compound of Ex. 2 after application to 10% body surface area (BSA) murine skin; assessment of gross systemic toxicity from the application of compound of Ex. 2 after twice daily application to 10% BSA murine skin for 25 days; and determination of the correlation of skin and plasma compound levels with associated toxicity.
# Mice: 8 week old male C57BL/6J mice (Jackson Laboratories) were shaved prior to start of study and weekly.
# Compound application: Compounds were dissolved in a 50% DMSO/50% propyelene glycol vehicle. 0.125 mL of the following compounds were applied to the shaved dorsal back of mice (10% BSA) twice daily for 5 days per week for a total of 24 days. The second dose was applied 8 hours after first morning dose. All mice were shaved once per week at application site.
# Oral trametinib was dissolved in 0.5% hydroxypropyl methylcellulose (Sigma-Aldrich) and 0.2% Tween-80 (Sigma-Aldrich) and administered by oral gavage (0.2 mL bolus or 10 mg/kg) once daily 5 days per week. These mice were also shaved weekly.
# Weekly (Weeks 0-4): body weight measurements weekly, starting week 0 until experiment end; photographs of dorsal back and face of each mouse weekly, starting week 0 until experiment end; skin; and gross stool analysis assessed weekly for heme color, starting week 0 until experiment end.
# The study planned for the mice to be sacrificed at Day 25.
# Kaplan Meier curves were analyzed to determine progression to skin toxicity for each arm as compared with vehicle. T-test were used to compare compound levels at each dosage. Ki-67+ cells and p-ERK expression were also assessed on a cellular level via immunostaining. Western blots informed semi-quantitative changes in p-ERK expression.
# T1 sequence (Q12809 whole entry): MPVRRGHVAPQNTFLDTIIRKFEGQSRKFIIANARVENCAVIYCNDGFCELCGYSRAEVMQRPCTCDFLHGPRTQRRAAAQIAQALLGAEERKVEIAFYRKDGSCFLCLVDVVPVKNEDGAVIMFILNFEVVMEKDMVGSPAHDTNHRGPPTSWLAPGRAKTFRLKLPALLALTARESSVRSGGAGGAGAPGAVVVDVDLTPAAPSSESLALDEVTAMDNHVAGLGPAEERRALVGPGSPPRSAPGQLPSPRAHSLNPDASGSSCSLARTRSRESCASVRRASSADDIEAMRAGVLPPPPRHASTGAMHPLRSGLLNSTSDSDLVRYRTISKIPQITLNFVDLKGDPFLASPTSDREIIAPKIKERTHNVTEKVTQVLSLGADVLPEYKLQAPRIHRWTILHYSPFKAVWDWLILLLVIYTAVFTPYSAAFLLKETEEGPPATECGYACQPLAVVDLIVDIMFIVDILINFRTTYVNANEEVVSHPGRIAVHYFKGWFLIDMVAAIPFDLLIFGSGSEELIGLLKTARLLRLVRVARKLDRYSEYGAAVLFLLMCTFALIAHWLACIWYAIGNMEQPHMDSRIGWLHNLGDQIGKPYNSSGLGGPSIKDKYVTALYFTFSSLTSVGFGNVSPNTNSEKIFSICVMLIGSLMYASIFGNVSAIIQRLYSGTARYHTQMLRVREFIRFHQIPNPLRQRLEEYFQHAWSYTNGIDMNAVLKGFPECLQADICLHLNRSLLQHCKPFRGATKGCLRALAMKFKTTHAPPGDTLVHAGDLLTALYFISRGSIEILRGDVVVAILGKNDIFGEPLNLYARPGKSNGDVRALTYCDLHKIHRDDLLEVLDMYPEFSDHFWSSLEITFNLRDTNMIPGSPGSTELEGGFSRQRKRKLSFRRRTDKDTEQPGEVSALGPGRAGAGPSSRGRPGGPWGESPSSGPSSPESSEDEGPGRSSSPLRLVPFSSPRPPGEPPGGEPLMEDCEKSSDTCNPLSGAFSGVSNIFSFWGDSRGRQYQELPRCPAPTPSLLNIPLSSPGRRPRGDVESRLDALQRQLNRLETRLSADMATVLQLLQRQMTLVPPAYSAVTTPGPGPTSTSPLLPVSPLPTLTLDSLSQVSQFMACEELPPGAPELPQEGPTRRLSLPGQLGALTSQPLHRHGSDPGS
compound,measurement,setting,value
"Cn1c(Nc2ccc(I)cc2F)c(C(=O)NOCCO)c2cccnc21 [Example 2, 2-((2-Fluoro-4-iodophenyl)amino)—N-(2-hydroxyethoxy)-1-methyl-1H-pyrrolo[2,3-b]pyridine-3-carboxamide]",IC50,[1],> 30 µM
same,Survival Rates,"[2]; topical 0.1%, Day 0",100%
same,Survival Rates,"[2]; topical 0.1%, Day 3",100%
same,Survival Rates,"[2]; topical 0.1%, Day 6",100%
same,Survival Rates,"[2]; topical 0.1%, Day 9",100%
same,Survival Rates,"[2]; topical 0.1%, Day 12",100%
same,Survival Rates,"[2]; topical 0.1%, Day 15",100%
same,Survival Rates,"[2]; topical 0.1%, Day 18",100%
same,Survival Rates,"[2]; topical 0.1%, Day 21",100%
same,Survival Rates,"[2]; topical 0.1%, Day 24",100%
same,Survival Rates,"[2]; topical 0.1%, Day 25",100%
same,Survival Rates,"[2]; topical 0.5%, Day 0",100%
same,Survival Rates,"[2]; topical 0.5%, Day 3",100%
same,Survival Rates,"[2]; topical 0.5%, Day 6",100%
same,Survival Rates,"[2]; topical 0.5%, Day 9",100%
same,Survival Rates,"[2]; topical 0.5%, Day 12",100%
same,Survival Rates,"[2]; topical 0.5%, Day 15",100%
same,Survival Rates,"[2]; topical 0.5%, Day 18",100%
same,Survival Rates,"[2]; topical 0.5%, Day 21",100%
same,Survival Rates,"[2]; topical 0.5%, Day 24",100%
same,Survival Rates,"[2]; topical 0.5%, Day 25",100%
same,Survival Rates,"[2]; topical 1%, Day 0",100%
same,Survival Rates,"[2]; topical 1%, Day 3",100%
same,Survival Rates,"[2]; topical 1%, Day 6",100%
same,Survival Rates,"[2]; topical 1%, Day 9",100%
same,Survival Rates,"[2]; topical 1%, Day 12",100%
same,Survival Rates,"[2]; topical 1%, Day 15",100%
same,Survival Rates,"[2]; topical 1%, Day 18",100%
same,Survival Rates,"[2]; topical 1%, Day 21",100%
same,Survival Rates,"[2]; topical 1%, Day 24",100%
same,Survival Rates,"[2]; topical 1%, Day 25",100%
same,systemic toxicity compared to topical Trametinib,[2]; topical application,less systemic toxicity
same,survival,"[2]; topically applied 0.1%, 0.5%, and 1% formulations, 25 days",All mice survived
